# Counter-ions that a name gives are not always drawn.
# Experiments:
# [1] = molecular target: T1, B1R receptor of the rat (bradykinin 1 receptor) (Rattus norvegicus, UniProt P97583); assay: FLIPR Ca2+ assay (Fluo-4) on CHO K1 cells stably transfected with the B1R gene of the rat; % activation and % inhibition at 10 μM; type: cell-based; details: CHO-K1, test substance 10 μM; CHO K1 rB1R cells; Ca2+ inflow after 100 nM Des-Arg9-bradykinin; read-out: B1R antagonism, rat [10 μM] % inhibition
# T1 construct: host or cells: CHO K1 cells (rB1R cells)
# T1 sequence (P97583 1-337): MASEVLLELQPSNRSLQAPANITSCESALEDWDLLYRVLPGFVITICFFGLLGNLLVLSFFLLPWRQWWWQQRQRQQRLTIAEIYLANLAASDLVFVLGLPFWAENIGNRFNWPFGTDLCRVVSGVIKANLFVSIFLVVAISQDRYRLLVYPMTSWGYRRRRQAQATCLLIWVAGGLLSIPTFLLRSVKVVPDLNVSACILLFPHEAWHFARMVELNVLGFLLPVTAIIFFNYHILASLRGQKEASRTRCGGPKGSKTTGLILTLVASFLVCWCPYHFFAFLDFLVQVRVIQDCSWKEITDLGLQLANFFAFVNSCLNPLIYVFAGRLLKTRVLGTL
# Summary of the method: (§1)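 CHO K1 cells stably expressing human or rat B1R, Fluo-4 loaded, read by FLIPR (peak fluorescence). Compound at 10 µM first gives % activation versus agonist; after 10 min, agonist (human: 0.5 nM Lys-Des-Arg9-bradykinin; rat: 100 nM Des-Arg9-bradykinin) gives % inhibition relative to maximal inhibition.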
# [2] = molecular target: T2, human B1R receptor (bradykinin 1 receptor) (Homo sapiens, UniProt P46663); assay: FLIPR Ca2+ assay (Fluo-4) on CHO K1 cells stably transfected with the human B1R gene; % activation and % inhibition at 10 μM; type: cell-based; details: CHO-K1, test substance 10 μM; CHO K1 hB1R cells; Ca2+ inflow after 0.5 nM Lys-Des-Arg9-bradykinin; read-out: B1R antagonism, human [10 μM] % inhibition
# T2 construct: host or cells: CHO K1 cells (hB1R cells)
# T2 sequence (P46663 1-353): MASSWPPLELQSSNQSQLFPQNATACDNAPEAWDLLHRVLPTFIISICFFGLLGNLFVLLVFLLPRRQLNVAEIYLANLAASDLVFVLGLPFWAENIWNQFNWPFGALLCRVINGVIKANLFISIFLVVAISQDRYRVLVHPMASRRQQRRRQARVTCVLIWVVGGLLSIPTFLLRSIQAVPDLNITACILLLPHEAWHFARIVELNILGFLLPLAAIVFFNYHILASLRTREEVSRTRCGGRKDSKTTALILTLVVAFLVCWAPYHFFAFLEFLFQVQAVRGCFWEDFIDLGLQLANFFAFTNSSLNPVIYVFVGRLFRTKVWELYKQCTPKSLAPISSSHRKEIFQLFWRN
# Summary of the method: as §1
Compound,inhibition at 10 µM [1],inhibition at 10 µM [2]
"Cc1cc(S(=O)(=O)N2CCCCC2CCC(=O)N2CCC(O)(c3cccnc3)CC2)c(C)cc1Cl (stereo not shown) [Example 111, 3-(1-(4-chloro-2,5-dimethylphenylsulfonyl)piperidin-2-yl)-1-(4-hydroxy-4-(pyridin-3-yl)piperidin-1-yl)propan-1-one hydrochloride]",85.9%,97.8%
"COc1cc(C)cc(C)c1S(=O)(=O)N1CCC(OCC(=O)N2CCC(O)(c3ccc(Br)cc3)CC2)C1 (stereo not shown) [Example 264, 1-(4-(4-bromophenyl)-4-hydroxypiperidin-1-yl)-2-(1-(2-methoxy-4,6-dimethylphenylsulfonyl)pyrrolidin-3-yloxy)ethanone]",4.5%,64.5%
"O=C(COCC1CCCCN1S(=O)(=O)c1ccc(C(F)(F)F)cc1)N1CCC(O)(c2cccnc2)CC1 (stereo not shown) [Example 155, 1-(4-hydroxy-4-(pyridin-3-yl)piperidin-1-yl)-2-((1-(4-(trifluoromethyl)phenylsulfonyl)piperidin-2-yl)methoxy)ethanone]",60.3%,30.3%
"Cc1ccc(S(=O)(=O)N2CCCCC2COCC(=O)N2CCC(O)(c3cccnc3)CC2)cc1Cl (stereo not shown) [Example 161, 2-((1-(3-chloro-4-methylphenylsulfonyl)piperidin-2-yl)methoxy)-1-(4-hydroxy-4-(pyridin-3-yl)piperidin-1-yl)ethanone]",80.8%,78.5%
"O=C(COC1CCN(S(=O)(=O)c2cccc(C(F)(F)F)c2)C1)N1CCC(O)(c2ccccn2)CC1 (stereo not shown) [Example 59, 1-(4′-hydroxy-3′,4′,5′,6′-tetrahydro-2′H-[2,4′]bipyridinyl-1′-yl)-2-[1-(3-trifluoromethyl-phenylsulfonyl)-pyrrolidin-3-yloxy]-ethanone]",16.6%,-24%
"COc1ccc(S(=O)(=O)N2CCCC2COCC(=O)N2CCC(O)(c3ccncc3)CC2)cc1 (stereo not shown) [Example 26, 1-(4-hydroxy-3,4,5,6-tetrahydro-2H-[4,4′]bipyridinyl-1-yl)-2-[1-(4-methoxy-phenylsulfonyl)-pyrrolidin-2-ylmethoxy]-ethanone]",5.09%,9.64%
"O=C(COCC1CCCCN1S(=O)(=O)c1c(Cl)cc(C(F)(F)F)cc1Cl)N1CCC(O)(c2ccc(Cl)c(C(F)(F)F)c2)CC1 (stereo not shown) [Example 165, 1-(4-(4-chloro-3-(trifluoromethyl)phenyl)-4-hydroxypiperidin-1-yl)-2-((1-(2,6-dichloro-4-(trifluoromethyl)phenylsulfonyl)piperidin-2-yl)methoxy)ethanone]",104%,2.63%
"O=C(COCC1CCCN1S(=O)(=O)c1c(Cl)cc(C(F)(F)F)cc1Cl)N1CCC(O)(c2ccccc2)CC1 (stereo not shown) [Example 168, 2-((1-(2,6-dichloro-4-(trifluoromethyl)phenylsulfonyl)pyrrolidin-2-yl)methoxy)-1-(4-hydroxy-4-phenylpiperidin-1-yl)ethanone]",104%,33.1%
"O=C(COCC1CCCCN1S(=O)(=O)c1ccccc1C(F)(F)F)N1CCC(O)(c2cccnc2)CC1 (stereo not shown) [Example 172, 1-(4-hydroxy-4-(pyridin-3-yl)piperidin-1-yl)-2-((1-(2-(trifluoromethyl)phenylsulfonyl)piperidin-2-yl)methoxy)ethanone]",105%,103%
"Cc1ccc(S(=O)(=O)N2CCC(OCC(=O)N3CCC(O)(Cc4ccccc4)CC3)C2)cc1 (stereo not shown) [Example 24, 1-(4-benzyl-4-hydroxy-piperidin-1-yl)-2-[1-(toluene-4-sulfonyl)-pyrrolidin-3-yloxy]-ethanone]",6.88%,12.1%
"Cc1cc(C)c(S(=O)(=O)N2CCCCC2COCC(=O)N2CCC(O)(c3ccc(Cl)cc3)CC2)c(C)c1 (stereo not shown) [Example 66, 1-(4-(4-chlorophenyl)-4-hydroxypiperidin-1-yl)-2-((1-(mesitylsulfonyl)piperidin-2-yl)methoxy)ethanone]",99.2%,84.5%

# More lines, now with the values ahead:
inhibition at 10 µM [1],inhibition at 10 µM [2],Compound
101%,103%,"COc1cc(C)c(S(=O)(=O)N(CCOCC(=O)N2CCC(O)(c3cccnc3)CC2)CC(C)C)c(C)c1C [Example 241, N-(2-(2-(4-hydroxy-4-(pyridin-3-yl)piperidin-1-yl)-2-oxoethoxy)ethyl)-N-isobutyl-4-methoxy-2,3,6-trimethylphenylsulfonamide]"
22.9%,7.47%,"Cc1ccc(F)cc1S(=O)(=O)N(C)CCOCC(=O)N1CCC(O)(Cc2ccccc2)CC1 [Example 62, N-{2-[2-(4-benzyl-4-hydroxy-piperidin-1-yl)-2-oxo-ethoxy]-ethyl}-5-fluoro-2,N-dimethyl-phenylsulfonamide]"
105%,103%,"COc1cc(C)c(S(=O)(=O)N(C)CCOCC(=O)N2CCC(O)(Cc3cccnc3)CC2)c(C)c1 [Example 279, N-(2-(2-(4-hydroxy-4-(pyridin-3-ylmethyl)piperidin-1-yl)-2-oxoethoxy)ethyl)-4-methoxy-N,2,6-trimethylphenylsulfonamide hydrochloride]"
33.3%,97.4%,"COc1cc(C)c(S(=O)(=O)N2CCC(OCC(=O)N3CCC(O)(Cc4ccccc4)CC3)CC2)c(C)c1C [Example 8, 1-(4-benzyl-4-hydroxy-piperidin-1-yl)-2-[1-(4-methoxy-2,3,6-trimethyl-phenylsulfonyl)-piperidin-4-yloxy]-ethanone]"
16.1%,14.2%,"CN(CCOCC(=O)N1CCC(O)(c2cccnc2)CC1)S(=O)(=O)c1ccc(Cl)s1 [Example 102, 5-chloro-thiophene-2-sulfonic acid {2-[2-(4′-hydroxy-3′,4′,5′,6′-tetrahydro-2′H-[3,4′]bipyridinyl-1′-yl)-2-oxo-ethoxy]-ethyl}-methyl-amide]"
93.3%,94%,"Cc1cc(S(=O)(=O)N(C)CCOCC(=O)N2CCC(O)(c3ccc(Cl)c(C(F)(F)F)c3)CC2)c(C)s1 [Example 259, N-(2-(2-(4-(4-chloro-3-(trifluoromethyl)phenyl)-4-hydroxypiperidin-1-yl)-2-oxoethoxy)ethyl)-N,2,5-trimethylthiophene-3-sulfonamide]"
73.6%,90.3%,"CN(CCOCC(=O)N1CCC(O)(c2ccccn2)CC1)S(=O)(=O)c1c(Cl)cccc1Cl [Example 10, 2,6-dichloro-N-{2-[2-(4′-hydroxy-3′,4′,5′,6′-tetrahydro-2′H-[2,4′]bipyridinyl-1′-yl)-2-oxo-ethoxy]-ethyl}-N-methyl-phenylsulfonamide]"
100%,106%,"COc1cc(C)c(S(=O)(=O)N(CCOCC(=O)N2CCC(O)(c3cccc(C(F)(F)F)c3)CC2)CC2CC2)c(C)c1C [Example 208, N-(cyclopropylmethyl)-N-(2-(2-(4-hydroxy-4-(3-(trifluoromethyl)phenyl)-piperidin-1-yl)-2-oxoethoxy)ethyl)-4-methoxy-2,3,6-trimethylphenylsulfonamide]"
100%,99.6%,"COc1cc(C)c(S(=O)(=O)N(CCOCC(=O)N2CCC(O)(Cc3ccccc3)CC2)CC(C)C)c(C)c1C [Example 211, N-(2-(2-(4-benzyl-4-hydroxypiperidin-1-yl)-2-oxoethoxy)ethyl)-N-isobutyl-4-methoxy-2,3,6-trimethylphenylsulfonamide]"
